Reference: paper PMC9079931 (RSC Advances, 2018)

Experiments:
[1] = system: human colon cancer cell line Caco-2; assay: In vitro cytotoxicity, MTT assay; format: cell-based; details: Caco-2, 24 h, 0.001–100 μg ml^−1
[2] = cited from earlier work
[3] = cited from earlier work; remark: listed apart in the source
[4] = cited from earlier work; remark: listed apart in the source

Structure (SMILES) | Cell viability of Caco-2 cells versus concentration [1] | Solubility of DIC in water [2] [µg/mL] | Acute toxicity [3] | Oral acute toxicity dose [4]
N#CC(c1ccc(Cl)cc1)c1c(Cl)cc(-n2ncc(=O)[nH]c2=O)cc1Cl (stereo not shown) [DIC, Diclazuril] | gradually decreased with the increase of free drug concentration | 0.69 | low acute toxicity | –
OB(O)c1ccccc1 [phenylboronic acid] | – | – | – | higher than 900 mg kg^−1 body weight
